Consider eight compounds from ChEMBL document CHEMBL5291721, “A preclinical secondary pharmacology resource illuminates target-adverse drug reaction associations of marketed drugs” (Nat Commun, 2023).

Where only a bound is given, the exact number is not on record here.

The target in assay [1] is Kappa-type opioid receptor (Homo sapiens, UniProt P41145).
For assay [2], the target named is T1, 5-hydroxytryptamine receptor 3A (Homo sapiens, UniProt P46098).
T1 sequence (P46098 whole entry): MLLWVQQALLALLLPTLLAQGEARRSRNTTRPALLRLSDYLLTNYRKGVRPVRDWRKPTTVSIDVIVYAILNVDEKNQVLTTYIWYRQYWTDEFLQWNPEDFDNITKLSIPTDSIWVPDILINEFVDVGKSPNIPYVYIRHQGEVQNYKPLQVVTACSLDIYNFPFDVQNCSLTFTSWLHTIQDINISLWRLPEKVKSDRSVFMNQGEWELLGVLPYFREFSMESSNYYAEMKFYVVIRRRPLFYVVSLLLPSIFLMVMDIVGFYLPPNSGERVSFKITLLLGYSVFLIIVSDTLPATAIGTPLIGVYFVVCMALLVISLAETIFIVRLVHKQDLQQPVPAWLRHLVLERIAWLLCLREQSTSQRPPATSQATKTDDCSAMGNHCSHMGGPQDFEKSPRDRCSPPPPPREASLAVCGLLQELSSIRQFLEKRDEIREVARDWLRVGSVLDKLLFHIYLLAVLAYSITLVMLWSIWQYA
Type of assay: functional.

For assay [3], the target named is T2, Cannabinoid receptor 1 (Homo sapiens, UniProt P21554).
T2 sequence (P21554 whole entry): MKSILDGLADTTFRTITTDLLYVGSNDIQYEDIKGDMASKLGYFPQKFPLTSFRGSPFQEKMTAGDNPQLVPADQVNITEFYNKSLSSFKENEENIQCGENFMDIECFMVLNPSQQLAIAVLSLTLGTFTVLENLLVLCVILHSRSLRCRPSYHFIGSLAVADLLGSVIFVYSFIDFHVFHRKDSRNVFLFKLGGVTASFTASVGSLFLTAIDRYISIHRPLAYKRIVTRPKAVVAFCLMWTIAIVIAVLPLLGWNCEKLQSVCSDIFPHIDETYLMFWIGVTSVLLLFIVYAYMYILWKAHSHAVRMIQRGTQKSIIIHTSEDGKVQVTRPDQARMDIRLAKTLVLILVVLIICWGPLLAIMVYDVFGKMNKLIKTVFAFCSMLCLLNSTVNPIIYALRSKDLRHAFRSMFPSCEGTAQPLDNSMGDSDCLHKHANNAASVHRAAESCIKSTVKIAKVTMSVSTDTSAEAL
In another assay the target is Histamine H2 receptor (Homo sapiens, UniProt P25021). Type of assay: functional, cell-based.
Sequence of Histamine H2 receptor (P25021 whole entry): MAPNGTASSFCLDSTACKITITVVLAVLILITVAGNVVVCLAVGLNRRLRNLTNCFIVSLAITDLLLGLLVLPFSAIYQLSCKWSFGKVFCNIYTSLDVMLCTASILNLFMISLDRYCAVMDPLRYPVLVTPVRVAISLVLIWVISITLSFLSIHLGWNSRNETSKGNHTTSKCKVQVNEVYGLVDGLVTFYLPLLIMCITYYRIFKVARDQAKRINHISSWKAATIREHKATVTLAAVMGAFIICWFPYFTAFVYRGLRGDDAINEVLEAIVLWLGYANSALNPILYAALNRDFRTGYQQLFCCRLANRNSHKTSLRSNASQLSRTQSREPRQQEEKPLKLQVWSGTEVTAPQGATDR
In the next assay the target is T3, Adenosine receptor A1 (Homo sapiens, UniProt P30542).
T3 sequence (P30542 whole entry): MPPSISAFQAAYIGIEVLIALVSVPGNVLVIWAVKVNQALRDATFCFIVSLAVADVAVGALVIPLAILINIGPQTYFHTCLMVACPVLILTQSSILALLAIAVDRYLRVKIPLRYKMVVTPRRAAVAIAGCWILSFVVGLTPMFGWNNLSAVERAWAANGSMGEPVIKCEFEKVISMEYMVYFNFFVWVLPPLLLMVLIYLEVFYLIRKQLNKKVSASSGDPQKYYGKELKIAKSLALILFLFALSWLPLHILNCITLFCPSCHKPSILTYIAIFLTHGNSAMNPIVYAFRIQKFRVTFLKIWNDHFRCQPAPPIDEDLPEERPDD

In a further assay the target is T4, Estrogen receptor (Homo sapiens, UniProt P03372).
T4 sequence (P03372 whole entry): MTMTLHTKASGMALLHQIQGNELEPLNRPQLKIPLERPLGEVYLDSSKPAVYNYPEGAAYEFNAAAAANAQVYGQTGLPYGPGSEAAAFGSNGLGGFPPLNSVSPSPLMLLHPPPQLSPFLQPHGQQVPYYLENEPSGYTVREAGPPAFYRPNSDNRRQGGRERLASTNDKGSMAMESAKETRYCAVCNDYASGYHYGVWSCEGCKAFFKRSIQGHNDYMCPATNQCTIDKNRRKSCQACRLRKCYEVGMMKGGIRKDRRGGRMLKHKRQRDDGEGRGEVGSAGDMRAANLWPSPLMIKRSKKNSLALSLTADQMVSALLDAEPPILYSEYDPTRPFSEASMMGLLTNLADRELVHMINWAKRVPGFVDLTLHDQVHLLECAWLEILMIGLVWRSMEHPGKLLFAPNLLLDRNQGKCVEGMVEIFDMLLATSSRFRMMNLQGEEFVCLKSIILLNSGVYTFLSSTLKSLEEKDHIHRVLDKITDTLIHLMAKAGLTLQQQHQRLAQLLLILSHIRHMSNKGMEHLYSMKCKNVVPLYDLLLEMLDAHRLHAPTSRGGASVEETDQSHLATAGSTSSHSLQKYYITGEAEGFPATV

The target of assay [4] is Neuronal acetylcholine receptor subunit alpha-4 (Homo sapiens, UniProt P43681).
Sequence of Neuronal acetylcholine receptor subunit alpha-4 (P43681 whole entry): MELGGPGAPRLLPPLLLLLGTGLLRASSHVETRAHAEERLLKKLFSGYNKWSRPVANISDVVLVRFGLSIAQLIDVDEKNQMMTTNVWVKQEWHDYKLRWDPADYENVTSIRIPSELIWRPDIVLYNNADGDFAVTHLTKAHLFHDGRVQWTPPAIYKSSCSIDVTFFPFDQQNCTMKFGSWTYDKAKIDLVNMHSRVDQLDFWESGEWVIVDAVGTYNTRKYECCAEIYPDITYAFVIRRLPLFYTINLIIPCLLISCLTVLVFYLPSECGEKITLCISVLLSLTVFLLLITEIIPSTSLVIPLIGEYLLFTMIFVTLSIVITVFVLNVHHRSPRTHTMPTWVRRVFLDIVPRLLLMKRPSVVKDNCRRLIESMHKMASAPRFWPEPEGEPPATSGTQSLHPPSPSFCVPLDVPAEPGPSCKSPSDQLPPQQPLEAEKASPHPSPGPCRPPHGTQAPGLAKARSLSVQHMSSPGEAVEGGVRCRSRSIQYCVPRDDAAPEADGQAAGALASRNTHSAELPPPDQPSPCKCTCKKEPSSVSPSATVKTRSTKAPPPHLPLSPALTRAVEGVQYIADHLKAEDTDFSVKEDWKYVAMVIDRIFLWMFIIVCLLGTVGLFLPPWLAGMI
In assay [5] the target is Gamma-aminobutyric acid receptor subunit alpha-1 (Rattus norvegicus, UniProt P62813). It is filed as functional.
Sequence of Gamma-aminobutyric acid receptor subunit alpha-1 (P62813 whole entry): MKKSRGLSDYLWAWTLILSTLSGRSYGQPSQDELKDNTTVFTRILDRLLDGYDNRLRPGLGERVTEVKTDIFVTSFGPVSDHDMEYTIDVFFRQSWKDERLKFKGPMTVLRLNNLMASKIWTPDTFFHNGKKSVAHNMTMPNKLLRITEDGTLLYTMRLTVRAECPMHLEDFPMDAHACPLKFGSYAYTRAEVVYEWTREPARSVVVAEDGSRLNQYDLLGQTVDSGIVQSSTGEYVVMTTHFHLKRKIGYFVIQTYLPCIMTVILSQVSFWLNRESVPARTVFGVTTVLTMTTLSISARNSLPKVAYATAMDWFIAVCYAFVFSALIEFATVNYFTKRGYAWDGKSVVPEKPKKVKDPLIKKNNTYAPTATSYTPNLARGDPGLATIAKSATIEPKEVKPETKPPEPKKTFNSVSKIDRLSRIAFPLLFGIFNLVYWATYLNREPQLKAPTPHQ
The target in assay [6] is T2, Cannabinoid receptor 1. Type of assay: functional, cell-based.
The target in assay [7] is T5, 5-hydroxytryptamine receptor 2A (Homo sapiens, UniProt P28223). Type of assay: functional, cell-based.
T5 sequence (P28223 whole entry): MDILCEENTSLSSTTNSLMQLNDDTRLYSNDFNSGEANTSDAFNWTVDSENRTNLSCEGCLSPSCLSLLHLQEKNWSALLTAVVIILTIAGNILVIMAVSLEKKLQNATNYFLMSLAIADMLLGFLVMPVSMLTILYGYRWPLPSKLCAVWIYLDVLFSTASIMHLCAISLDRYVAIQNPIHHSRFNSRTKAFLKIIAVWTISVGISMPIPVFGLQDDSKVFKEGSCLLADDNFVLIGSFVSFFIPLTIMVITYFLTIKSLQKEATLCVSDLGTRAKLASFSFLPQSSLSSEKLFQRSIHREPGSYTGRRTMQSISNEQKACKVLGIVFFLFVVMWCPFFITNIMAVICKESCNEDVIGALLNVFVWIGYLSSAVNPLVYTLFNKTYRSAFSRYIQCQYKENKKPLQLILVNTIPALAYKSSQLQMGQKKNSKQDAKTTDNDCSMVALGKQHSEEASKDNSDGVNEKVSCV
Assay [8] has as its target T5, 5-hydroxytryptamine receptor 2A. Type of assay: functional, cell-based. The source holds these as a separate data set.
In assay [9] the target is T6, Alpha-2C adrenergic receptor (Homo sapiens, UniProt P18825).
T6 sequence (P18825 whole entry): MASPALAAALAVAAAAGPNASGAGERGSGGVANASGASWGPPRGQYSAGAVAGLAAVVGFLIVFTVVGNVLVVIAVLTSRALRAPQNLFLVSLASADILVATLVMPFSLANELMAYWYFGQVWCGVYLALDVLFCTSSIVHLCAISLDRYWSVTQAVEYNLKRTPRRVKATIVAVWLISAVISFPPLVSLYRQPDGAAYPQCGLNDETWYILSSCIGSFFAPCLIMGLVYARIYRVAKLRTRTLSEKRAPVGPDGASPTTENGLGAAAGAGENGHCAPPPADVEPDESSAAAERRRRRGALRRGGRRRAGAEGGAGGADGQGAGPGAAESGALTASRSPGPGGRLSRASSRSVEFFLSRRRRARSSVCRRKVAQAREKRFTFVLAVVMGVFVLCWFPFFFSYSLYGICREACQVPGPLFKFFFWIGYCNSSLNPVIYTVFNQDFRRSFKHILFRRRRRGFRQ
Type of assay: functional.

A further assay concerns the target Histamine H3 receptor (Homo sapiens, UniProt Q9Y5N1).
In the next assay the target is T7, Endothelin-1 receptor (Homo sapiens, UniProt P25101).
T7 sequence (P25101 whole entry): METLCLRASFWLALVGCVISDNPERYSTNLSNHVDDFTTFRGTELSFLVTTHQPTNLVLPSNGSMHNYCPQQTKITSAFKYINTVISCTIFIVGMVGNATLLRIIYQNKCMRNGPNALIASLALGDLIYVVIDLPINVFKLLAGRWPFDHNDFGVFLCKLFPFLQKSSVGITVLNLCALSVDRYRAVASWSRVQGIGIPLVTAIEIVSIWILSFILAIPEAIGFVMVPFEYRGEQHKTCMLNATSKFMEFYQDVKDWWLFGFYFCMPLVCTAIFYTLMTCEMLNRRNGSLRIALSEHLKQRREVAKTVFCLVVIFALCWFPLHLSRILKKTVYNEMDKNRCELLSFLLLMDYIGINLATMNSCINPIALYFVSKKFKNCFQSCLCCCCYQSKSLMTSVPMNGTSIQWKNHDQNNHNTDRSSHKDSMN
Also: assay procedure not described here.

Sequence of Kappa-type opioid receptor (P41145 whole entry): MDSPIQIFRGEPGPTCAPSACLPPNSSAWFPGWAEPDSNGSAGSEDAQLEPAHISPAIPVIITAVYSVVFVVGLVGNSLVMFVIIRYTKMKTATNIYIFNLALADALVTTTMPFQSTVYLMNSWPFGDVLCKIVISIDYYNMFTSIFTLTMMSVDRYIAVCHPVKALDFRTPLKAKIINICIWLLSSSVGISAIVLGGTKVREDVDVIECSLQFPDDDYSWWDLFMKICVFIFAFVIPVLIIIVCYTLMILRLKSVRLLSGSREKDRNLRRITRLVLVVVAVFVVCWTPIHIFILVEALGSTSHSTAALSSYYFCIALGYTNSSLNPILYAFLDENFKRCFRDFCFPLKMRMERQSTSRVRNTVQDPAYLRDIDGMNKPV
Sequence of Histamine H3 receptor (Q9Y5N1 whole entry): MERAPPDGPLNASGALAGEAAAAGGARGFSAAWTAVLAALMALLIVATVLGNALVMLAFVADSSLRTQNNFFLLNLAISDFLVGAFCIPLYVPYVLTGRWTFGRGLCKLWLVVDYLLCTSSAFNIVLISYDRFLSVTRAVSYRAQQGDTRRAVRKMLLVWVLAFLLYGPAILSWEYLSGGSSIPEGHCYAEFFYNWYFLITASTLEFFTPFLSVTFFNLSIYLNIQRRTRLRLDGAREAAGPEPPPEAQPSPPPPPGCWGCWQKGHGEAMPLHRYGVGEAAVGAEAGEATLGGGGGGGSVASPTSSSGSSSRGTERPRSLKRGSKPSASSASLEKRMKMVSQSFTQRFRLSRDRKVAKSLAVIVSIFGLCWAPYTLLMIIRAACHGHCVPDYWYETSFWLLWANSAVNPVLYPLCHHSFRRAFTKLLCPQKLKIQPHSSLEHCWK

Regarding `CC(=O)c1ccc(S(=O)(=O)NC(=O)NC2CCCCC2)cc1` [ACETOHEXAMIDE], the AC50 in assay [1] is over 10 µM; in assay [2], over 30 µM; on Cannabinoid receptor 1 [3] it was over 10 µM; on Histamine H2 receptor it was over 10 µM; at Adenosine receptor A1, over 10 µM; at Estrogen receptor, over 10 µM. Besides, the AC50 in assay [4] was over 10 µM; in assay [5] it was over 10 µM; on Cannabinoid receptor 1 [6], over 30 µM; in assay [7], over 30 µM; in assay [8], over 30 µM; in assay [9] it was over 10 µM.
Consider `NS(=O)(=O)c1cc2c(cc1Cl)N=C(CSCc1ccccc1)NS2(=O)=O` [BENZTHIAZIDE], for which the AC50 in assay [1] was over 10 µM; in assay [2], over 10 µM; at Cannabinoid receptor 1 [3] it was over 10 µM; on Histamine H2 receptor it was over 30 µM; at Adenosine receptor A1, over 10 µM; at Estrogen receptor, over 30 µM. Also, the AC50 is over 10 µM in assay [4]; over 10 µM in [5]; over 10 µM in assay [7]; over 10 µM in [8]; 1.5 µM in assay [9].
As for `O=C(c1cc(Cc2n[nH]c(=O)c3ccccc23)ccc1F)N1CCN(C(=O)C2CC2)CC1` [OLAPARIB], the AC50 was over 10 µM in assay [1]; over 30 µM in [2]; over 10 µM at Cannabinoid receptor 1 [3]; over 30 µM at Histamine H2 receptor; 11.9 µM at Adenosine receptor A1; over 30 µM at Estrogen receptor. Also, the AC50 in assay [4] is over 30 µM; in assay [5] it was over 10 µM; in assay [7], over 10 µM; in [8], over 10 µM; in [9] it was over 10 µM.
For the compound `O=C(O)c1ccc(NC(=O)[C@H](Cc2ccc(O)cc2)NC(=O)c2ccccc2)cc1` [BENTIROMIDE], the AC50 in [1] was over 10 µM; in [2], over 30 µM; on Cannabinoid receptor 1 [3], over 10 µM; at Histamine H2 receptor, over 10 µM; on Adenosine receptor A1, over 10 µM; on Estrogen receptor, over 10 µM. The AC50 in assay [4], in [5], in [7], in assay [8] and in [9] was over 10 µM throughout.
As to `CC(C)[C@@H](C)/C=C/[C@@H](C)[C@H]1CC[C@H]2/C(=C/C=C3\C[C@@H](O)CC[C@@H]3C)CCC[C@]12C` [DIHYDROTACHYSTEROL], the AC50 in assay [1] is over 10 µM; in [2] it was over 30 µM; on Cannabinoid receptor 1 [3], over 10 µM; on Histamine H2 receptor it was over 10 µM; on Adenosine receptor A1 it was over 10 µM; on Estrogen receptor, over 30 µM. For the same compound, the AC50 in assay [4], in [5], in assay [7], in assay [8] and in [9] was over 10 µM each time.
In the case of `COc1cc(C)c(/C=C/C(C)=C/C=C/C(C)=C/C(=O)O)c(C)c1C` [ACITRETIN], the AC50 on Histamine H3 receptor is over 10 µM; in [1], over 10 µM; in assay [2], over 30 µM; on Cannabinoid receptor 1 [3], over 10 µM; on Histamine H2 receptor, over 10 µM; at Adenosine receptor A1, over 10 µM. In addition, the AC50 at Estrogen receptor is over 30 µM; in [4], over 10 µM; in assay [5], over 10 µM; on Cannabinoid receptor 1 [6] it was over 30 µM; in [7], over 10 µM; in [8], over 10 µM. Further, the AC50 in assay [9] is over 10 µM.
With `C=CC[N+]1([C@H]2C[C@H]3[C@@H]4CC[C@H]5C[C@H](O)[C@@H](N6CCOCC6)C[C@]5(C)[C@H]4CC[C@]3(C)[C@H]2OC(C)=O)CCCC1` [ROCURONIUM], the AC50 (on Histamine H3 receptor; in assay [1]; in assay [2]; at Cannabinoid receptor 1 [3]; on Histamine H2 receptor; at Adenosine receptor A1) was over 30 µM each time. The AC50 (at Estrogen receptor; in [4]; in [5]; in assay [7]; in [8]; in assay [9]) was over 30 µM throughout.
Regarding `Clc1ccc(CCC(Cn2ccnc2)Sc2c(Cl)cccc2Cl)cc1` (centres undefined) [BUTOCONAZOLE], the AC50 was over 30 µM on Histamine H3 receptor; 1.8 µM in assay [1]; over 30 µM in assay [2]; over 30 µM on Cannabinoid receptor 1 [3]; over 30 µM on Histamine H2 receptor; over 30 µM on Adenosine receptor A1. For the same compound, the AC50 on Estrogen receptor was 20 µM; in assay [4] it was over 30 µM; in assay [5], over 30 µM; on Endothelin-1 receptor it was over 30 µM; in assay [7], over 30 µM; in assay [8], over 30 µM. This compound showed an AC50 in assay [9] of over 30 µM.

The term AC50 denotes the concentration at which the activity in the assay is half-maximal.
